pIC50: −log10 of the molar value.
Experiments:
[1] = molecular target: T1, human LPA3 (Homo sapiens, UniProt Q9UBY5); assay: LPA3 calcium flux assay; format: cell-based; details: Human LPA3 expressing CHO cells, stimulated with 10 nM LPA; read-out: HLPA3 Ca Flux IC50
T1 construct: The full-length cDNA fragment for human LPA3 was obtained by PCR from the vector; expressed in transfected cells; cDNA from the Missouri S&T cDNA Resource Center
T1 sequence (Q9UBY5 1-353): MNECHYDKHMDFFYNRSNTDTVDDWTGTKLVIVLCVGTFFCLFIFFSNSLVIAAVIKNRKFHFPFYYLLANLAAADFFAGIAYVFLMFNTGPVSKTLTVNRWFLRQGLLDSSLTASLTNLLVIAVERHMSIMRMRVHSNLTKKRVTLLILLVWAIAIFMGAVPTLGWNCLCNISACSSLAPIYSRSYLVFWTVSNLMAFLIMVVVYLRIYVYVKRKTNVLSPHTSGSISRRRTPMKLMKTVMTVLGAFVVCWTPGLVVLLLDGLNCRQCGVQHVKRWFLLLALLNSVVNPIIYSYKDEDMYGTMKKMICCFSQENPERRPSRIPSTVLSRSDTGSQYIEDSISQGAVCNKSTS
Summary of the method: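 Stably transfected CHO cells, serum-starved overnight, loaded with Calcium 4 dye 1 h at 37 °C in HBSS/20 mM Hepes with 0.3% fatty-acid-free HSA. Compounds preincubated 30 min at room temperature, then cells stimulated with 10 nM LPA; intracellular Ca2+ read by fluorescence; IC50 from titration curves.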

[2] = molecular target: T2, human LPA1 (Homo sapiens, UniProt Q92633); assay: LPA1 calcium flux assay (HLPA1 Ca Flux); format: cell-based; details: Human LPA1 expressing CHO cells, stimulated with 10 nM LPA
T2 construct: the full-length cDNA for human LPA1 was obtained by PCR of the reverse transcription reaction; expressed in transfected cells
T2 sequence (Q92633 whole entry): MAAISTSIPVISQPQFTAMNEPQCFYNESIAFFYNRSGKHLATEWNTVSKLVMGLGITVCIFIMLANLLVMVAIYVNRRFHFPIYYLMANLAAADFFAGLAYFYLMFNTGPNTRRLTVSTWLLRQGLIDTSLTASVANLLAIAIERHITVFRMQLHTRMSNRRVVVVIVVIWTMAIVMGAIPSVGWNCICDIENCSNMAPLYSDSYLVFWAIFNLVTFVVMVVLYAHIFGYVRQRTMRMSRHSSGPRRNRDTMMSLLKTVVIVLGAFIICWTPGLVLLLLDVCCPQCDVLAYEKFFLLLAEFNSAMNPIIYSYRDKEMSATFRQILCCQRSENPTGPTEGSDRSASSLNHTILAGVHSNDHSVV
Summary of the method: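 CHO cells stably expressing cloned human LPA1, serum-starved overnight and loaded with Calcium 4 dye, were preincubated 30 min at room temperature with compound. Cells were then challenged with 10 nM LPA and intracellular Ca2+ measured; IC50 values came from titration curves.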

Work on `Cc1noc(-c2ccc(-c3ccc(C(C)(C)C(=O)O)cc3)cc2)c1NC(=O)O[C@H](C)c1ccccc1Cl` [Compound 1-89, 2-(4′-{4-[(R)-1-(2-Chloro-phenyl)-ethoxycarbonylamino]-3-methyl-isoxazol-5-yl}-biphenyl-4-yl)-2-methyl-propionic acid] yielded a pIC50 [1] of 6.00 to 6.52 and a pIC50 [2] greater than 6.52.

`Cc1noc(-c2ccc(-c3ccc(C(C)(C)C(=O)O)cc3)cc2)c1NC(=O)O[C@H](C)c1ccccc1F` [Compound 1-90, 2-(4′-{4-[(R)-1-(2-Fluoro-phenyl)-ethoxycarbonylamino]-3-methyl-isoxazol-5-yl}-biphenyl-4-yl)-2-methyl-propionic acid] showed a pIC50 [1] of 4.30 to 6.00 and a pIC50 [2] greater than 6.52.

With `Cc1noc(-c2ccc(-c3ccc(C(C)C(=O)O)cc3)cc2)c1NC(=O)O[C@H](C)c1ccccc1F` (stereo partly drawn) [Compound 1-91, 2-(4′-{4-[(R)-1-(2-Fluoro-phenyl)-ethoxycarbonylamino]-3-methyl-isoxazol-5-yl}-biphenyl-4-yl)-propionic acid] the pIC50 [1] was 4.30 to 6.00 and the pIC50 [2] was greater than 6.52.

For `Cc1noc(-c2ccc(-c3ccc(C(C)C(=O)O)cc3)cc2)c1NC(=O)O[C@H](C)c1ccccc1Cl` (stereo partly drawn) [Compound 1-92, 2-(4′-{4-[(R)-1-(2-Chloro-phenyl)-ethoxycarbonylamino]-3-methyl-isoxazol-5-yl}-biphenyl-4-yl)-propionic acid], the pIC50 [1] was 6.00 to 6.52 and the pIC50 [2] was greater than 6.52.

`Cc1noc(-c2ccc(-c3nc(C(=O)O)cs3)cc2)c1NC(=O)OC(C)c1ccccc1Cl` (centres unmarked) [Compound 1-93, 2-(4-{4-[1-(2-Chloro-phenyl)-ethoxycarbonylamino]-3-methyl-isoxazol-5-yl}-phenyl)-thiazole-4-carboxylic acid] showed a pIC50 [1] of 4.30 to 6.00 and a pIC50 [2] greater than 6.52.

`Cc1noc(-c2ccc(-c3ncc(C(=O)O)s3)cc2)c1NC(=O)OC(C)c1ccccc1Cl` (centres unmarked) [Compound 1-94, 2-(4-{4-[1-(2-Chloro-phenyl)-ethoxycarbonylamino]-3-methyl-isoxazol-5-yl}-phenyl)-thiazole-5-carboxylic acid] showed a pIC50 [1] of 4.30 to 6.00 and a pIC50 [2] greater than 6.52.

Compound `COC(=O)Cc1cccc(Oc2ccc(-c3onc(C)c3NC(=O)O[C@H](C)c3ccccc3F)cc2)c1` [Compound 1-95, [3-(4-{4-[1-(2-Fluoro-phenyl)-ethoxycarbonylamino]-3-methyl-isoxazol-5-yl}-phenoxy)-phenyl]acetic acid methyl ester] has a pIC50 [1] of 4.30 to 6.00 and a pIC50 [2] greater than 6.52.

For `Cc1noc(-c2ccc(Oc3cccc(CC(=O)O)c3)cc2)c1NC(=O)O[C@H](C)c1ccccc1F` [Compound 1-96, [3-(4-{4-[1-(2-Fluoro-phenyl)-ethoxycarbonylamino]-3-methyl-isoxazol-5-yl}-phenoxy)-phenyl]-acetic acid], the pIC50 [1] was 4.30 to 6.00 and the pIC50 [2] was greater than 6.52.

With `Cc1noc(-c2ccc(CS(=O)(=O)c3ccc(CC(=O)O)cc3)cc2)c1NC(=O)OC(C)c1ccccc1Cl` (centres unmarked) [Compound 1-97, [4-(4-{4-[1-(2-Chloro-phenyl)-ethoxycarbonylamino]-3-methyl-isoxazol-5-yl}-phenylmethanesulfonyl)-phenyl]-acetic acid] the pIC50 [1] was 4.30 to 6.00 and the pIC50 [2] was greater than 6.52.

Work on `Cc1noc(-c2ccc(CS(=O)(=O)c3cccc(CC(=O)O)c3)cc2)c1NC(=O)OC(C)c1ccccc1Cl` (centres unmarked) [Compound 1-98, [3-(4-{4-[1-(2-Chloro-phenyl)-ethoxycarbonylamino]-3-methyl-isoxazol-5-yl}-phenylmethanesulfonyl)-phenyl]acetic acid] yielded a pIC50 [1] of less than 4.30 and a pIC50 [2] greater than 6.52.

`Cc1noc(-c2ccc(CS(=O)(=O)c3ccccc3CC(=O)O)cc2)c1NC(=O)OC(C)c1ccccc1Cl` (centres unmarked) [Compound 1-99, [2-(4-{4-[1-(2-Chloro-phenyl)-ethoxycarbonylamino]-3-methyl-isoxazol-5-yl}-phenylmethanesulfonyl)-phenyl]-acetic acid] was tested, and the pIC50 [1] was 4.30 to 6.00 and the pIC50 [2] was greater than 6.52.

For `Cc1noc(-c2ccc(COc3ccc(CC(=O)O)cc3)cc2)c1NC(=O)OC(C)c1ccccc1Cl` (centres unmarked) [Compound 1-100, [4-(4-{4-[1-(2-Chloro-phenyl)-ethoxycarbonylamino]-3-methyl-isoxazol-5-yl}-benzyloxy)-phenyl]-acetic acid], the pIC50 [1] was 4.30 to 6.00 and the pIC50 [2] was greater than 6.52.

`COC(=O)Cc1ccc(OCc2ccc(-c3onc(C)c3NC(=O)O[C@H](C)c3ccccc3Cl)cc2)cc1` [Compound 1-102, [4-(4-{4-[(R)-1-(2-Chloro-phenyl)-ethoxycarbonylamino]-3-methyl-isoxazol-5-yl}-benzyloxy)-phenyl]-acetic acid methyl ester] gave a pIC50 [1] of 4.30 to 6.00 and a pIC50 [2] greater than 6.52.

`Cc1noc(-c2ccc(COc3ccc(CC(=O)O)cc3)cc2)c1NC(=O)O[C@H](C)c1ccccc1Cl` [Compound 1-103, [4-(4-{4-[(R)-1-(2-Chloro-phenyl)-ethoxycarbonylamino]-3-methyl-isoxazol-5-yl}-benzyloxy)-phenyl]-acetic acid] was tested, and the pIC50 [1] was 4.30 to 6.00 and the pIC50 [2] was greater than 6.52.

Work on `Cc1noc(-c2ccc(Sc3ccc(CC(=O)O)cc3)cc2)c1NC(=O)O[C@H](C)c1ccccc1F` [Compound 1-109, [4-(4-{4-[(R)-1-(2-Fluoro-phenyl)-ethoxycarbonylamino]-3-methyl-isoxazol-5-yl}-phenylsulfanyl)-phenyl]-acetic acid] yielded a pIC50 [1] of 4.30 to 6.00 and a pIC50 [2] greater than 6.52.

Compound `Cc1noc(-c2ccc(-c3ccc(CC(=O)O)cc3)cc2)c1NC(=O)O[C@@H](C)c1ccccc1F` [Compound 1-111, (4′-{4-[(S)-1-(2-Fluoro-phenyl)-ethoxycarbonylamino]-3-methyl-isoxazol-5-yl}-biphenyl-4-yl)-acetic acid] has a pIC50 [1] of 4.30 to 6.00 and a pIC50 [2] greater than 6.52.

For `Cc1noc(-c2ccc(-c3ccc(CC(=O)O)cc3)cc2)c1NC(=O)O[C@@H](C)c1ccccc1Cl` [Compound 1-112, (4′-{4-[(S)-1-(2-Chloro-phenyl)-ethoxycarbonylamino]-3-methyl-isoxazol-5-yl}-biphenyl-4-yl)-acetic acid], the pIC50 [1] was 4.30 to 6.00 and the pIC50 [2] was 6.00 to 6.52.

In the case of `Cc1noc(-c2ccc(COc3ccccc3CC(=O)O)cc2)c1NC(=O)O[C@H](C)c1ccccc1Cl` [Compound 1-114, [2-(4-{4-[(R)-1-(2-Chloro-phenyl)-ethoxycarbonylamino]-3-methyl-isoxazol-5-yl}-benzyloxy)-phenyl]-acetic acid], the pIC50 [1] was 4.30 to 6.00 and the pIC50 [2] was greater than 6.52.

With `Cc1noc(-c2ccc(-c3ccc(CC(=O)O)cc3)cc2)c1NC(=O)OC(C)c1cccc(F)c1F` (centres unmarked) [Compound 1-116, (4′-{4-[1-(2,3-Difluoro-phenyl)-ethoxycarbonylamino]-3-methyl-isoxazol-5-yl}-biphenyl-4-yl)-acetic acid] the pIC50 [1] was 4.30 to 6.00 and the pIC50 [2] was greater than 6.52.

`Cc1noc(-c2ccc(-c3ccc(CC(=O)O)cc3)cc2)c1NC(=O)OC(C)c1ccc(F)cc1F` (centres unmarked) [Compound 1-117, (4′-{4-[1-(2,4-Difluoro-phenyl)-ethoxycarbonylamino]-3-methyl-isoxazol-5-yl}-biphenyl-4-yl)-acetic acid] gave a pIC50 [1] of 4.30 to 6.00 and a pIC50 [2] greater than 6.52.

In the case of `Cc1noc(-c2ccc(-c3ccc(CC(=O)O)cc3)cc2)c1NC(=O)OC(C)c1cc(F)ccc1F` (centres unmarked) [Compound 1-119, (4′-{4-[1-(2,5-Difluoro-phenyl)-ethoxycarbonylamino]-3-methyl-isoxazol-5-yl}-biphenyl-4-yl)-acetic acid], the pIC50 [1] was 4.30 to 6.00 and the pIC50 [2] was greater than 6.52.

`Cc1noc(-c2ccc(-c3ccc(CC(=O)O)cc3)cc2)c1NC(=O)OC(C)c1c(F)cccc1F` (centres unmarked) [Compound 1-120, (4′-{4-[1-(2,6-Difluoro-phenyl)-ethoxycarbonylamino]-3-methyl-isoxazol-5-yl}-biphenyl-4-yl)-acetic acid] gave a pIC50 [1] of less than 4.30 and a pIC50 [2] greater than 6.52.

In the case of `Cc1noc(-c2ccc(-c3cccc(CC(=O)O)c3)cc2)c1NC(=O)O[C@H](C)c1ccccc1` [Compound 1-121], the pIC50 [1] was less than 4.30 and the pIC50 [2] was greater than 6.52.

`Cc1noc(-c2ccc(-c3ccc(C(=O)O)cc3)cc2)c1NC(=O)O[C@H](C)c1ccccc1` [Compound 1-122] showed a pIC50 [1] of 4.30 to 6.00 and a pIC50 [2] greater than 6.52.

Compound `Cc1ccccc1[C@@H](C)OC(=O)Nc1c(C)noc1-c1ccc(-c2ccc(CC(=O)O)cc2)cc1` [Compound 1-124] has a pIC50 [1] of 4.30 to 6.00 and a pIC50 [2] greater than 6.52.

For `Cc1noc(-c2ccc(-c3ccc(CC(=O)O)cn3)cn2)c1NC(=O)O[C@H](C)c1ccccc1F` [Compound 1-126, (6′-{4-[(R)-1-(2-Fluoro-phenyl)-ethoxycarbonylamino]-3-methyl-isoxazol-5-yl}-[2,3,1]bipyridinyl-5-yl)-acetic acid], the pIC50 [1] was 4.30 to 6.00 and the pIC50 [2] was greater than 6.52.

Work on `Cc1noc(-c2ccc(-c3ccc(CC(=O)O)cc3)cc2Cl)c1NC(=O)O[C@H](C)c1ccccc1Cl` [Compound 1-129, (3′-Chloro-4′-{4-[(R)-1-(2-chloro-phenyl)-ethoxycarbonylamino]-3-methyl-isoxazol-5-yl}-biphenyl-4-yl)-acetic acid] yielded a pIC50 [1] of 4.30 to 6.00 and a pIC50 [2] greater than 6.52.

`CCC(C(=O)O)c1ccc(-c2ccc(-c3onc(C)c3NC(=O)O[C@H](C)c3ccccc3Cl)cc2)cc1` (stereo partly drawn) [Compound 1-130, 2-(4′-{4-[(R)-1-(2-Chloro-phenyl)-ethoxycarbonylamino]-3-methyl-isoxazol-5-yl}-biphenyl-4-yl)-butyric acid] gave a pIC50 [1] of 6.00 to 6.52 and a pIC50 [2] greater than 6.52.
